Source: US20230293517A1, “ANTAGONIST COMPOUNDS” (AdoRx Therapeutics Limited, priority 2020, published 2023)
Where a name gives a salt, the structure may show the parent alone.

Experiments:
[1] = target: human Adenosine A2a receptor (Homo sapiens (Human), UniProt P29274); experiment: Adenosine receptor TR-FRET binding assay (A2a); conditions: inhibition of binding of 100 nM CA200645, CHO cell membranes
Method in brief: (§1)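 TR-FRET displacement of fluorescent XAC (CA200645; 30 nM for A2b, 100 nM for A1/A2a/A3) from terbium-labelled human receptors in CHO membranes, 2 h at room temperature with saponin, 1% DMSO. Non-specific binding with 10 μM XAC; 665/620 nm ratio; Ki from IC50 by Cheng–Prusoff.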

[2] = target: human Adenosine A3 receptor (Homo sapiens (Human), UniProt P0DMS8); experiment: Adenosine receptor TR-FRET binding assay (A3); conditions: inhibition of binding of 100 nM CA200645, CHO cell membranes
Chain of human Adenosine A3 receptor (P0DMS8 whole entry): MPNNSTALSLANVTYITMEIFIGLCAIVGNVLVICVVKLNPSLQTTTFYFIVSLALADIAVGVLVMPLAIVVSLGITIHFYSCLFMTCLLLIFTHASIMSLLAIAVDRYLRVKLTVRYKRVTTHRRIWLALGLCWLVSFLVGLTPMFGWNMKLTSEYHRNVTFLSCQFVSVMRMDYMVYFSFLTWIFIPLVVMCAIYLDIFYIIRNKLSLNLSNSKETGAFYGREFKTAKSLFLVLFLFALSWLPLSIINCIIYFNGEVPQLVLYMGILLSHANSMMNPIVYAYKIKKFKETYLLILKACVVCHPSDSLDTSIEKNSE
Experimental: Biological Example 1—Adenosine Receptor Time-Resolved Fluorescence Resonance Energy Transfer (TRFRET) Binding Assay
All FRET binding experiments were conducted at room temperature in white 384-well plates, in assay binding buffer containing 1×LabMed (Cisbio, France), 100 μg/mL saponin, 1% DMSO and 0.02% pluronic acid. Binding of the fluorescently labelled Adenosine receptor antagonist XAC (CA200645, FRET acceptor) to terbium-labelled A1, A2a, A2b and A3 adenosine receptors (FRET donors) was detected by time-resolved FRET due to the close proximity of the donor and acceptor in a binding event. To investigate the ability of unlabelled test compounds to bind to Adenosine A1, A2a, A2b and A3 receptors, dose response curves were constructed that determined the ability of a range of concentrations to inhibit the binding of 30 nM CA200645 to the A2b receptor and 100 nM CA200645 to the A1, A2a, and A3 receptor.
Serial dilution (1:3 dilutions) of test compounds in neat DMSO and transfer of a 400 nL sample of test compound into the assay plate was carried out using the Mosquito (TTP Labtech, UK). The compound samples were incubated for 2 hours at room temperature with a fixed concentration of CA200645 defined for each receptor (see above) and CHO cell membranes containing the human Adenosine A1 (0.5 μg/well), A2a (0.3 μg/well), A2b (1 μg/well) or A3 (1 μg/well) receptor in 40 μL of assay buffer. Total and non-specific binding of CA200645 was determined in the absence and presence of 10 μM XAC, respectively. Following 2 hours incubation, the level of CA200645 binding was detected on a Pherastar FSX (BMG Labtech, Germany) using standard TR-FRET settings. The terbium donor was excited with three laser flashes at a wavelength of 337 nm, and donor and acceptor emission was detected at 620 nm and 665 nm wavelengths, respectively. FRET ratios were obtained by multiplying the acceptor/donor ratio value by 10,000. Specific binding was determined by subtracting the non-specific binding FRET ratio from the total binding FRET ratio. Compound IC50 curves were analysed using GraphPad Prism 7.0 (GraphPad, USA) and Ki affinity values were determined from the obtained IC50 values using the method of Cheng and Prusoff.

[3] = target: human Adenosine A1 receptor (Homo sapiens (Human), UniProt P30542); experiment: Adenosine receptor TR-FRET binding assay (A1); conditions: inhibition of binding of 100 nM CA200645, CHO cell membranes
Chain of human Adenosine A1 receptor (P30542 whole entry): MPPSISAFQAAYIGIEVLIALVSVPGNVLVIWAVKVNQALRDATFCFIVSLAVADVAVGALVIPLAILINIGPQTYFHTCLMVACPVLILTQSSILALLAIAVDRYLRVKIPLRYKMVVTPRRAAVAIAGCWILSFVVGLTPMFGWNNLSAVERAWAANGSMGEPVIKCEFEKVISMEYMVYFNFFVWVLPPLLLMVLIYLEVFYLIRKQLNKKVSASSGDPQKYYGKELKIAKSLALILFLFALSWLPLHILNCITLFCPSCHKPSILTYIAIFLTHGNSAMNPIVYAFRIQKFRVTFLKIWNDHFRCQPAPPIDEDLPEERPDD
Method in brief: as §1

[4] = target: human Adenosine A2b receptor (Homo sapiens (Human), UniProt P29275); experiment: Adenosine receptor TR-FRET binding assay (A2b); conditions: TR-FRET, inhibition of binding of 30 nM CA200645, CHO cell membranes
Chain of human Adenosine A2b receptor (P29275 whole entry): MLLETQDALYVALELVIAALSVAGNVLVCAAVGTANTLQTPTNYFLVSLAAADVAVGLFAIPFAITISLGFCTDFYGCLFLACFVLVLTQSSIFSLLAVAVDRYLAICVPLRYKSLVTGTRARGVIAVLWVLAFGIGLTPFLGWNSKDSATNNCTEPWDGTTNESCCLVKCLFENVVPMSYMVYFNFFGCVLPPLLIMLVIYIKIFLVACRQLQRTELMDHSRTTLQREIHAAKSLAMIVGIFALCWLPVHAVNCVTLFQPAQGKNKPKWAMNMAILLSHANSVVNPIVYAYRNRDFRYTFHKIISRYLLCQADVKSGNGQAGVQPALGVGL
Method in brief: as §1

Chain of human Adenosine A2a receptor (P29274 whole entry): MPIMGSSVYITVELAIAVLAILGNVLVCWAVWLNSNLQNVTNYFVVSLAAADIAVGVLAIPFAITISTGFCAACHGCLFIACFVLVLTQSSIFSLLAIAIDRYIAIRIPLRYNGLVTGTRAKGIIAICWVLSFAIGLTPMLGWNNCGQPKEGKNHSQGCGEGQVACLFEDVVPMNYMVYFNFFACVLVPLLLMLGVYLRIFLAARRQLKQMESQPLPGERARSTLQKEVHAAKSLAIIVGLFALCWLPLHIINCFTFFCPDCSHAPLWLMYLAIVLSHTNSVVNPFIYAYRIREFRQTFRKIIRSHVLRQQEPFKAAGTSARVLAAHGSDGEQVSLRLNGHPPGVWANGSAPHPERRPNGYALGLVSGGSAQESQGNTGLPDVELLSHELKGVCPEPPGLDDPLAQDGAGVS

Ki [1] | Ki [2] | Ki [3] | Ki [4] | SMILES
9.58 nM | 303 nM | 243 nM | 20.9 nM | Cc1cc(-c2sc(NC(=O)N3CCN4C(=O)CNC(=O)C4C3)nc2-c2cccc(C#N)c2)cc(C)n1 (stereo not drawn) [Example 6.35, N-[4-(3-Cyanophenyl)-5-(2,6-dimethyl-4-pyridyl)thiazol-2-yl]-6,9-dioxo-1,3,4,7,8,9a-hexahydropyrazino[1,2-a]pyrazine-2-carboxamide]
1.82 nM | 356 nM | 91 nM | 10.1 nM | Cc1cc(-c2sc(NC(=O)N3CCN4C(=O)COCC4C3)nc2-c2cccc(C#N)c2)cc(C)n1 (stereo not drawn) [Example 6.37, N-[4-(3-Cyanophenyl)-5-(2,6-dimethyl-4-pyridyl)thiazol-2-yl]-4-oxo-6,7,9,9a-tetrahydro-1H-pyrazino[2,1-c][1,4]oxazine-8-carboxamide]
10.1 nM | 389 nM | 383 nM | 39.6 nM | Cc1cc(-c2sc(NC(=O)N3CCN4C(=O)CN(C)C(=O)C4C3)nc2-c2cccc(C#N)c2)cc(C)n1 (stereo not drawn) [Example 6.39, N-[4-(3-Cyanophenyl)-5-(2,6-dimethyl-4-pyridyl)thiazol-2-yl]-8-methyl-6,9-dioxo-3,4,7,9a-tetrahydro-1H-pyrazino[1,2-a]pyrazine-2-carboxamide]
1.12 nM | 175 nM | 51 nM | 8.2 nM | Cc1cc(-c2sc(NC(=O)N3CCN4C(=O)CCCC4C3)nc2-c2cccc(C#N)c2)cc(C)n1 (stereo not drawn) [Example 6.43, N-[4-(3-Cyanophenyl)-5-(2,6-dimethyl-4-pyridyl)thiazol-2-yl]-6-oxo-3,4,7,8,9,9a-hexahydro-1H-pyrido[1,2-a]pyrazine-2-carboxamide]
1.27 nM | 324 nM | 51 nM | 2.2 nM | Cc1cc(-c2sc(NC(=O)N3C[C@H]4COC[C@H]4C3)nc2-c2cccc(C#N)c2)cc(C)n1 [Example 6.49, (3aR,6aS)-N-[4-(3-Cyanophenyl)-5-(2,6-dimethyl-4-pyridyl)thiazol-2-yl]-1,3,3a,4,6,6a-hexahydrofuro[3,4-c]pyrrole-5-carboxamide]
4.3 nM | 238 nM | 120 nM | 8.6 nM | Cc1cc(-c2sc(NC(=O)N3C[C@@H]4CNC(=O)[C@@H]4C3)nc2-c2cccc(C#N)c2)cc(C)n1 [Example 6.52, (3aS,6aS)-N-[4-(3-Cyanophenyl)-5-(2,6-dimethyl-4-pyridyl)thiazol-2-yl]-3-oxo-1,2,3a,4,6,6a-hexahydropyrrolo[3,4-c]pyrrole-5-carboxamide]
3.09 nM | 455 nM | 185 nM | 6.2 nM | CCN1CCN(C(=O)Nc2nc(-c3cccc(C#N)c3)c(-c3cc(C)nc(C)c3)s2)CC1 [Example 6.60, N-[4-(3-Cyanophenyl)-5-(2,6-dimethyl-4-pyridyl)thiazol-2-yl]-4-ethyl-piperazine-1-carboxamide]
35.7 nM | 358 nM | 219 nM | 23.3 nM | Cc1cc(-c2sc(NC(=O)N3CCC(C(=O)O)CC3)nc2-c2cccc(C#N)c2)cc(C)n1 [Example 6.62, 1-[[4-(3-Cyanophenyl)-5-(2,6-dimethyl-4-pyridyl)thiazol-2-yl]carbamoyl]piperidine-4-carboxylic acid]
34.3 nM | 200 nM | 343 nM | 29.2 nM | Cc1cc(-c2sc(NC(=O)N3CC[C@H](C(=O)O)C3)nc2-c2cccc(C#N)c2)cc(C)n1 [Example 6.63, (3S)-1-[[4-(3-Cyanophenyl)-5-(2,6-dimethyl-4-pyridyl)thiazol-2-yl]carbamoyl]pyrrolidine-3-carboxylic acid]
45.6 nM | 295 nM | 185 nM | 17.3 nM | Cc1cc(-c2sc(NC(=O)N3CC[C@@H](C(=O)O)C3)nc2-c2cccc(C#N)c2)cc(C)n1 [Example 6.65, (3R)-1-[[4-(3-Cyanophenyl)-5-(2,6-dimethyl-4-pyridyl)thiazol-2-yl]carbamoyl]pyrrolidine-3-carboxylic acid]
9.59 nM | 192 nM | 163 nM | 13.1 nM | Cc1cc(-c2sc(NC(=O)N3CC(C(=O)O)C3)nc2-c2cccc(C#N)c2)cc(C)n1 [Example 6.70, 1-[[4-(3-Cyanophenyl)-5-(2,6-dimethyl-4-pyridyl)thiazol-2-yl]carbamoyl]azetidine-3-carboxylic acid]
1.44 nM | 193 nM | 133 nM | 5.4 nM | Cc1cc(-c2sc(NC(=O)N3CCC4(CCN(C)C4=O)CC3)nc2-c2cccc(C#N)c2)cc(C)n1 [Example 6.77, N-[4-(3-Cyanophenyl)-5-(2,6-dimethyl-4-pyridyl)thiazol-2-yl]-2-methyl-1-oxo-2,8-diazaspiro[4.5]decane-8-carboxamide]
0.67 nM | 37 nM | 24 nM | 0.9 nM | Cc1cc(-c2sc(NC(=O)N3CC[C@H]3C)nc2-c2cccc(C#N)c2)cc(C)n1 [Example 6.78, (2R)-N-[4-(3-Cyanophenyl)-5-(2,6-dimethyl-4-pyridyl)thiazol-2-yl]-2-methyl-azetidine-1-carboxamide]
0.8 nM | 450 nM | 130 nM | 2.4 nM | Cc1cc(-c2sc(NC(=O)N3CCC4(CCOC4)C3)nc2-c2cccc(C#N)c2)cc(C)n1 (stereo not drawn) [Example 6.80, N-[4-(3-Cyanophenyl)-5-(2,6-dimethyl-4-pyridyl)thiazol-2-yl]-2-oxa-7-azaspiro[4.4]nonane-7-carboxamide]
3.67 nM | 246 nM | 116 nM | 5.1 nM | Cc1cc(-c2sc(NC(=O)N3CC[C@H]3C(C)(C)O)nc2-c2cccc(C#N)c2)cc(C)n1 [Example 6.82, (2S)-N-[4-(3-Cyanophenyl)-5-(2,6-dimethyl-4-pyridyl)thiazol-2-yl]-2-(1-hydroxy-1-methyl-ethyl)azetidine-1-carboxamide]
67.6 nM | 294 nM | 129 nM | 102 nM | Cc1cc(-c2sc(NC(=O)N3CC[C@@H]3C(C)(C)O)nc2-c2cccc(C#N)c2)cc(C)n1 [Example 6.83, (2R)-N-[4-(3-Cyanophenyl)-5-(2,6-dimethyl-4-pyridyl)thiazol-2-yl]-2-(1-hydroxy-1-methyl-ethyl)azetidine-1-carboxamide]
12.1 nM | 216 nM | 44 nM | 16 nM | Cc1cc(-c2sc(NC(=O)N3CC(=O)N[C@H](C)C3)nc2-c2cccc(C#N)c2)cc(C)n1 [Example 6.85, (3R)-N-[4-(3-Cyanophenyl)-5-(2,6-dimethyl-4-pyridyl)thiazol-2-yl]-3-methyl-5-oxo-piperazine-1-carboxamide]
0.68 nM | 181 nM | 2 nM | 1.9 nM | Cc1cc(-c2sc(NC(=O)N3CCOC[C@@H]3C)nc2-c2cccc(C#N)c2)cc(C)n1 [Example 6.86, (3S)-N-[4-(3-Cyanophenyl)-5-(2,6-dimethyl-4-pyridyl)thiazol-2-yl]-3-methyl-morpholine-4-carboxamide]
1.75 nM | 37 nM | 57 nM | 6.7 nM | Cc1cc(-c2sc(NC(=O)N3CCC34COC4)nc2-c2cccc(C#N)c2)cc(C)n1 [Example 6.87, N-[4-(3-Cyanophenyl)-5-(2,6-dimethyl-4-pyridyl)thiazol-2-yl]-6-oxa-1-azaspiro[3.3]heptane-1-carboxamide]
1.01 nM | 300 nM | 326 nM | 3.5 nM | Cc1cc(-c2sc(NC(=O)N3CCC4(CC3)CN(C)C(=O)N4C)nc2-c2cccc(C#N)c2)cc(C)n1 [Example 6.89, N-[4-(3-Cyanophenyl)-5-(2,6-dimethyl-4-pyridyl)thiazol-2-yl]-1,3-dimethyl-2-oxo-1,3,8-triazaspiro[4.5]decane-8-carboxamide]

SMILES | Ki [1] | Ki [2] | Ki [3] | Ki [4]
Cc1cc(-c2sc(NC(=O)N3CCC(N4CCOCC4)C3)nc2-c2cccc(C#N)c2)cc(C)n1 (stereo not drawn) [Example 6.84, N-[4-(3-Cyanophenyl)-5-(2,6-dimethyl-4-pyridyl)thiazol-2-yl]-3-morpholino-pyrrolidine-1-carboxamide hemi formate salt] | 4.46 nM | 568 nM | 216 nM | 8.4 nM
